# Assay results published in US11155820B2, “Target of VGSC β3 protein for prevention, treatment and diagnostic detection of cancers” (SHENYANG PHARMACEUTICAL UNIVERSITY, priority 2014, dated 2021).
# Tests used:
# [1] = tested on: VGSC β3 subunit; test: Western blotting of VGSC β3 subunit in HepG2 cells after AGAP; type: cell-based, human; details: HepG2, 40 μM, 48 h incubation, control proteins
# Protocol: (§1) Analgesic antitumoral peptide (AGAP) at […] different concentrations (0, 5, 10, 15, 20, 25, 30, 35 and 40 μM) were incubated with hepatoma cell lines HepG2 (96 well plates, 10^4 cells/well, 24 h later, AGAP was administered at different concentrations as described above, at least 3 wells were repeated for each concentration) for 48 h, the amount of the VGSC β3 subunit expressed was then detected by Western blotting using the antibody in I.10. The cell proliferation level was measured using the MTT method.
# [2] = tested on: hepatoma cell lines HepG2; test: MTT assay of HepG2 cell proliferation after AGAP; type: cell-based; details: HepG2, 40 μM, 48 h incubation, control proteins
# Protocol: The cell proliferation was measured by MTT assay:took the cells in good growth condition and in logarithmic growth phase, digested with conventional trypsin, and pipetted into a single cell suspension, after counting the blood cell with blood counting chamber, the concentration was adjusted to 10^5 cells/ml (HepG2 cells), then were inoculated into 96-well plates at 100 μl per well, while set the blank hole (only added 100 μl of culture medium, without cells); cultured in 5% CO2 incubator at 37° C. for 24 h, each well was added 0.5 mg/ml MTT, 100 μl, then continued to culture for 4 h, the supernatant was discarded and 150 μl of DMSO was added to each well. The mixture was incubated at low speed for 10 min on a micro shaker, and the absorbance of each well was measured at 490 nm using a microplate reader after the crystals were fully dissolved.
# as §1
Substance,effect on the expression of the VGSC β3 subunit [1],effect on cell proliferation [2]
bovine serum albumin,no effect,nor did it affect cell proliferation
cytochrome C,no effect,nor did it affect cell proliferation
